Values quoted from earlier work as cited in US11160791B2, “Dexmedetomidine injection premix formulation in ready to use (RTU) bags” (Medefil, Inc., priority 2018, dated 2021).

- drug loss with a buffer (plastic containers, buffer system in the formulation, same prior patents): ~10%
- dexmedetomidine loss when sodium chloride is used (plastic containers, even with buffers present, U.S. Pat. No. 9,649,296): at least 10%
- loss of the dexmedetomidine from the liquid composition (plastic materials, U.S. Pat. Nos. 8,242,158, 8,648,106, 8,436,033, 8,338,470): up to 20%
SMILES: Cc1cccc([C@H](C)c2cnc[nH]2)c1C [dexmedetomidine]
